Patent US5998654A, “Retinoic acid receptor antagonist compounds and methods” (Ligand Pharmaceuticals Incorporated, priority 1997, dated 1999)

Legend:
RARγ = target: T1, RARγ (Homo sapiens, UniProt P13631); test: RAR binding, RARγ; details: Kd from IC50 by Cheng-Prussof equation
T1 sequence (P13631 1-454): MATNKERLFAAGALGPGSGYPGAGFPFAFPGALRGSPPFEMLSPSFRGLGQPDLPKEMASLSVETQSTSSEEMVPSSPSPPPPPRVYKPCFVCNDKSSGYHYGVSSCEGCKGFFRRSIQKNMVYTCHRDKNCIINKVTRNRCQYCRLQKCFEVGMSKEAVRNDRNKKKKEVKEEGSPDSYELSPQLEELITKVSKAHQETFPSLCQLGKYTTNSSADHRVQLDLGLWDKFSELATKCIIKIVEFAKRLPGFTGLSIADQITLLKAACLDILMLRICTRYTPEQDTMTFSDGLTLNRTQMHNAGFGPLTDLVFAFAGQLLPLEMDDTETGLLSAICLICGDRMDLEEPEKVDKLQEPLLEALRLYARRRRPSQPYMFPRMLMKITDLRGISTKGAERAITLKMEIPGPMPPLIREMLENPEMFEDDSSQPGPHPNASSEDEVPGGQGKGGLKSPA
Experimental: Non-specific binding was defined as that binding remaining in the presence of 500 nM of the appropriate unlabelled compound. At the end of the incubation period, bound from free ligand were separated. The amount of bound tritiated retinoids was determined by liquid scintillation counting of an aliquot (700 μL) of the supernatant fluid or the hydroxylapatite pellet.
After correcting for non-specific binding, IC50 values were determined. […] The IC50 value was determined graphically from a log-logit plot of the data. The Kd values were determined by application of the Cheng-Prussof equation to the IC50 values, the labeled ligand concentration and the Kd of the labeled ligand.

RARβ = target: T2, RARβ (Homo sapiens, UniProt P10826); test: co-transfection assay, antagonist activity on RARβ; type: cell-based; design: expressed in transfected cells; host or cells: CV-1 cells (African green monkey kidney); details: CV-1 cells, in presence of known RAR agonist TTNPB; for IC50: read-out: IC50 antagonist potency, RARβ
T2 sequence (P10826 1-448 isoform P10826-2): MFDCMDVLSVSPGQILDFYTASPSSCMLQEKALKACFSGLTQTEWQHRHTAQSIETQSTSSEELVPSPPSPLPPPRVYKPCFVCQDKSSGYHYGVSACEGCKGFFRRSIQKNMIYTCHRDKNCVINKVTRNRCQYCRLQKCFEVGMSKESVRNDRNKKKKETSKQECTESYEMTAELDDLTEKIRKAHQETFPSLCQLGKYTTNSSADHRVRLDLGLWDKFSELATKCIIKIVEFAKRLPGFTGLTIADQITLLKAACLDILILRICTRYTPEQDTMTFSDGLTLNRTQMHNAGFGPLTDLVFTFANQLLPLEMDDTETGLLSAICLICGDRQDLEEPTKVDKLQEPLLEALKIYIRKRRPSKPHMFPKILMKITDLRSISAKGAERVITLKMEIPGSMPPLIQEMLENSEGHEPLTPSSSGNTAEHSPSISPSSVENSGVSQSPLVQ
Source text: This assay is described in further detail in U.S. Pat. Nos. 4,981,784 and 5,071,773, the disclosures of which are incorporated herein by reference.
In the co-transfection assay, a cloned cDNA for an IR (e.g., human RARα:, RARβ, RXRγ) under the control of a constitutive promoter (e.g., the SV 40 promoter) is introduced by transfection (a procedure to induce cells to take up foreign genes) into a background cell substantially devoid of endogenous IRs. This introduced gene directs the recipient cells to make the IR protein of interest. A second gene is also introduced (co-transfected) into the same cells in conjunction with the IR gene. This second gene, comprising the cDNA for a reporter protein, such as firefly luciferase (LUC), is controlled by an appropriate hormone responsive promoter containing a hormone response element (HRE). This reporter plasmid functions as a reporter for the transcription-modulating activity of the target IR. Thus, the reporter acts as a surrogate for the products (mRNA then protein) normally expressed by a gene under control of the target receptor and its native hormone.
The co-transfection assay can detect small molecule agonists or antagonists of target IRs. Exposing the transfected cells to an agonist ligand compound increases reporter activity in the transfected cells. This activity can be conveniently measured, e.g., by increasing luciferase production, which reflects compound-dependent, IR-mediated increases in reporter transcription. To detect antagonists, the co-transfection assay is carried out in the presence of a constant concentration of an agonist to the target IR (e.g., all-trans retinoic acid for RARα) known to induce a defined reporter signal. Increasing concentrations of a suspected antagonist will decrease the reporter signal (e.g., luciferase production). The co-transfection assay is therefore useful to detect both agonists and antagonists of specific IRs. Furthermore, it determines not only whether a compound interacts with a particular IR, but whether this interaction mimics (agonizes) or blocks (antagonizes) the effects of the native regulatory molecules on target gene expression, as well as the specificity and strength of this interaction.
CV-1 cells (African green monkey kidney fibroblasts) were cultured in the presence of Dulbecco's Modified Eagle Medium (DMEM) supplemented with 10% charcoal resin-stripped fetal bovine serum then transferred to 96-well microtiter plates one day prior to transfection.
To determine RAR and/or RXR agonist activity of the compounds of the present invention, the CV-1 cells were transiently transfected by calcium phosphate coprecipitation according to the procedure of Berger et al., 41 J. Steroid Biochem. Mol. Biol., 733 (1992) with the following receptor expressing plasmids: pRShRARα: Giguere et al., 330 Nature, 624 (1987); pRShRARβ and pRShRARγ, Ishikawa et al., 4 Mol. Endocrin., 837 (1990); pRShRXRα, Mangelsdorf et al., 345 Nature, 224 (1990); and pRSmRXRβ and pRSmRXRγ, Mangelsdorf et al., 6 Genes & Devel., 329 (1992), the disclosures of which are herein incorporated by reference. Each of these receptor expressing plasmids was co-transfected at a concentration of 5 ng/well, along with a basal reporter plasmid at 100 ng/well, the internal control plasmid pRS-β-Gal at 50 ng/well and filler DNA, pGEM at 45 ng/well.
The basal reporter plasmid D-MTV-LUC (Hollenberg and Evans, 55 Cell, 899 (1988), the disclosure of which is herein incorporated by reference) containing two copies of the TRE-palindromic response element described in Umesono et al., 336 Nature, 262 (1988), the disclosure of which is herein incorporated by reference, was used in transfections for the RARs, and the reporter plasmid CRBPIIFKLUC, which contains an RXRE (retinoid X receptor response element, as described in Mangelsdorf et al., 66 Cell, 555 (1991), the disclosure of which is herein incorporated by reference), was used in transfections for the RXRs.

Structure (SMILES) | Kd (RARγ) | efficacy of antagonist, % of maximal inhibition, RARβ (in parentheses after IC50) (RARβ) | IC50 (RARβ)
CCCOc1c(C(C)(C)C)cc(/C(C)=C/C=C/C(C)=C/C(=O)O)cc1C(C)(C)C [Compound 8, 2E, 4E, 6E-[7-(3,5-Di-t-butyl-4-n-propoxyphenyl)-3-methyl]-octa-2,4,6-trienoic acid] | 4 nM | 85% | 1 nM
CCCCCOc1c(C(C)(C)C)cc(/C(C)=C/C=C/C(C)=C/C(=O)O)cc1C(C)(C)C [Compound 9, 2E, 4E, 6E-[7-(3,5-Di-t-butyl-4-n-pentoxyphenyl)-3-methyl]-octa-2,4,6-trienoic acid] | 14 nM | 86% | 17 nM
CCCCOc1c(C(C)(C)C)cc(/C(C)=C/C=C/C(C)=C/C(=O)O)cc1C(C)(C)C [Compound 7, 2E, 4E, 6E-[7-(3,5-Di-t-butyl-4-n-butoxyphenyl)-3-methyl]-octa-2,4,6-trienoic acid] | 17 nM | 85% | 4 nM
C=C(c1ccccc1)c1cc(/C(C)=C/C=C/C(C)=C/C(=O)O)cc(C(C)(C)C)c1 [Compound 17, (2E,4E,6E)-7-[3-t-butyl-5-(1-phenyl-vinyl)-phenyl]-3-methyl-octa-2,4,6-trienoic acid] | 14 nM | 90% | 5 nM
